Molecular target: T1, NR2F6 (Homo sapiens, UniProt P10588)
T1 construct: expressed in transfected cells; also transient transfection
T1 sequence (P10588 1-404): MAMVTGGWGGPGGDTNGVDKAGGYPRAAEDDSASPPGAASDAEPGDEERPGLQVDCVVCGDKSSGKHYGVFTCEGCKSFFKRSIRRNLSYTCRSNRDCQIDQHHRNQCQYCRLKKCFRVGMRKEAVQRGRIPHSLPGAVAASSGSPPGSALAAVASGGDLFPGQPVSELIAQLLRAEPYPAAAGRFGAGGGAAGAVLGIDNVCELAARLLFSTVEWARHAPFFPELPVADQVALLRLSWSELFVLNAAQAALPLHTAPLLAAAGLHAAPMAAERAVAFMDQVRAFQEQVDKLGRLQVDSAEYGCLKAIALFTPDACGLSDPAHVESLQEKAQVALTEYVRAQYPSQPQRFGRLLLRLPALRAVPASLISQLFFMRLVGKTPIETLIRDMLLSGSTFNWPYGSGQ
Assay: NR2F6 agonist screening, Firefly signal cmpd/DMSO
Format: cell-based
Conditions: for Firefly/Renilla (NR2F6 stable, clone F4): ratio Firefly/Renilla; for Firefly, NR2F6 stable (clone F4)/pGL4: ratio of Firefly in NR2F6 stable clone F4 to pGL4

[1] = C11 analogs follow set (Tables 2-10)

Row | SMILES | Firefly, cmpd/DMSO repeat 1 [1] | Firefly, cmpd/DMSO repeat 2 [1] | Firefly/Renilla (NR2F6 stable, clone F4) (Table 12) | Firefly, NR2F6 stable (clone F4)/pGL4 (Table 12) | Firefly, cmpd/DMSO repeat 1 (Table 12) | Firefly, cmpd/DMSO repeat 2 (Table 12) | Firefly/Renilla (NR2F6 stable, clone F4) (Table 13) | Firefly, NR2F6 stable (clone F4)/pGL4 (Table 13) | Firefly, cmpd/DMSO repeat 1 (Table 13) | Firefly, cmpd/DMSO repeat 2 (Table 13)
1 | COC(=O)c1ccc2oc(=O)c(S(=O)(=O)c3ccc(OC)cc3)cc2c1 [Compound C12] | 20.0 | 16.7 | 2.6 | 6.6 | 20.0 | 16.7 | – | – | – | –
2 | COC(=O)c1ccc2oc(=O)c(S(=O)(=O)c3ccc(C)cc3)cc2c1 [Compound C13] | 14.0 | 12.9 | 1.8 | 4.2 | 14.0 | 12.9 | – | – | – | –
3 | COC(=O)c1ccc2oc(=O)c(S(=O)(=O)c3ccc(F)cc3)cc2c1 [Compound C14] | 22.3 | 20.0 | – | – | – | – | 1.5 | 7.6 | 22.3 | 20.0
4 | COC(=O)c1ccc2oc(=O)c(S(=O)(=O)c3ccc(Cl)cc3)cc2c1 [Compound C15] | 0.9 | 1.7 | – | – | – | – | – | – | – | –
5 | Cc1ccc(S(=O)(=O)c2cc3ccccc3oc2=O)cc1 [Compound C100] | 2.0 | 1.9 | – | – | – | – | – | – | – | –
6 | COc1ccc(S(=O)(=O)c2cc3ccccc3oc2=O)cc1 [Compound C101] | 4.5 | 4.7 | 2.4 | 3.6 | 4.5 | 4.7 | – | – | – | –
7 | O=c1oc2ccccc2cc1S(=O)(=O)c1ccc(Br)cc1 [Compound C102] | 13.0 | 15.3 | 2.4 | 5.9 | 13.0 | 15.3 | – | – | – | –
8 | CC(C)(C)c1ccc(S(=O)(=O)c2cc3ccccc3oc2=O)cc1 [Compound C103] | 2.8 | 1.4 | – | – | – | – | – | – | – | –
9 | Cc1ccc(S(=O)(=O)c2cc3ccccc3oc2=O)cc1C [Compound C104] | 3.1 | 4.4 | – | – | – | – | – | – | – | –
10 | O=c1oc2ccccc2cc1S(=O)(=O)c1ccc(Cl)cc1 [Compound C105] | 5.7 | 4.8 | – | – | – | – | 2.6 | 3.1 | 5.7 | 4.8
11 | O=c1oc2ccccc2cc1S(=O)(=O)c1ccc(Cl)c(Cl)c1 [Compound C106] | 1.4 | 1.3 | – | – | – | – | – | – | – | –
12 | O=c1oc2ccccc2cc1S(=O)(=O)c1ccc(F)c(Cl)c1 [Compound C107] | 11.0 | 11.0 | – | – | – | – | 1.4 | 5.8 | 11.0 | 11.0
13 | O=c1oc2ccccc2cc1S(=O)(=O)c1ccccc1F [Compound C108] | 7.9 | 7.3 | 2.6 | 5.5 | 7.9 | 7.3 | – | – | – | –
14 | O=c1oc2ccccc2cc1S(=O)(=O)c1cccc(Cl)c1 [Compound C109] | 9.2 | 10.3 | – | – | – | – | 2.9 | 2.9 | 9.2 | 10.3
15 | Cc1cc(S(=O)(=O)c2cc3ccccc3oc2=O)ccc1F [Compound C110] | 7.6 | 7.2 | 3.3 | 3.9 | 7.6 | 7.2 | – | – | – | –
16 | O=C(NCCc1ccccc1)c1ccc2oc(=O)c(S(=O)(=O)c3ccccc3)cc2c1 [Compound C111] | 29.8 | 35.9 | – | – | – | – | 1.1 | 8.7 | 29.8 | 35.9
17 | Cc1ccc(S(=O)(=O)c2cc3cc(C(=O)NCCc4ccccc4)ccc3oc2=O)cc1 [Compound C112] | 11.7 | 10.1 | 2.0 | 4.1 | 11.7 | 10.1 | – | – | – | –
18 | O=C(NCCc1ccccc1)c1ccc2oc(=O)c(S(=O)(=O)c3ccc(F)cc3)cc2c1 [Compound C113] | 5.8 | 7.0 | – | – | – | – | – | – | – | –
19 | O=C(NCCc1ccccc1)c1ccc2oc(=O)c(S(=O)(=O)c3ccc(Cl)cc3)cc2c1 [Compound C114] | 4.5 | 4.7 | – | – | – | – | – | – | – | –
